# Assay results reported in publication PMC11775380, “Discovery of Novel Nav1.7-Selective Inhibitors with the 1H-Indole-3-Propionamide Scaffold for Effective Pain Relief” (Research, 2025).
# Like-named read-outs stand apart in the source and are kept apart here.
# Columns and labels:
# [1] = Pharmacokinetic study in mice (p.o. and i.v.), LC-MS/MS of plasma; type: in vivo, ICR mice; details: for MRT last: read-out: MRT(0-t); for MRT inf: read-out: MRT(0-∞)
# Description: To evaluate the pharmaceutical properties of WN2-R, a preliminary pharmacokinetic study was conducted in mice to examine the in vivo pharmacokinetic profile following both oral (p.o.) and intravenous (i.v.) administrations, along with the determination of bioavailability (Table 2). Under p.o. conditions, WN2-R was rapidly absorbed, with drug detection occurring within 5 min. […] Similar to the p.o. study, the plasma concentration decreased gradually over time, approaching the quantitation limit at 6 to 8 h post-dosing (Fig. 7C).
# The pharmacokinetic and bioavailability of WN2-R were examined in ICR mice following both p.o. and i.v. administrations. All animal experiment procedures were carried out in accordance with the animal experiment procedures promulgated by the State Science and Technology Commission of China and Animal Care and Use Committee of Institute of Materia Medica, Chinese Academy of Medical Sciences (registry no. 00008517). Male ICR mice (n = 12), weighing 20 ± 2 g, were obtained from Beijing Vital River Experimental Animal Co., Ltd. (Beijing, China). Before the experiment, the mice were kept under standard conditions, including a 12-h light/dark cycle, adequate ventilation, a temperature of 25 ± 2 °C, and 60% relative humidity. WN2-R, suspended in physiological saline, was orally administrated to mice at 10 mg/kg after an overnight fast. In addition, the mice were injected via caudal vein with WN2-R dissolved in 20% HP-β-CD at 1 mg/kg. Blood samples were collected from the retro-orbital venous plexus to ice-cooled EP tube containing 0.5% heparin sodium at 0.033 (i.v. only), 0.083, 0.25, 0.5, 1, 2, 4, 6, 8, 12, and 24 h after dosing. Plasma was obtained by centrifugation of blood at 8,000 rpm for 5 min. Subsequently, 20 μl of plasma sample was mixed with 140 μl of acetonitrile, vortexed for 30 s, and centrifuged twice at 14,000 rpm for 5 min. The resulting supernatant (2 μl) was analyzed by the liquid chromatography–tandem mass spectrometry (LC-MS/MS) method.
# The LC-MS/MS system consisted of Thermo TSQ Access Max mass and Vanquish liquid chromatograph (Thermo Scientific, USA). Zorbax-SB C18 column (2.1 × 100 mm, 3.5 μm Agilent USA) was used in the analysis. The mobile phase consisted of water containing 0.1% formic acid (Phase A) and acetonitrile (Phase B) at a flow rate of 0.25 ml/min with an operation temperature of 35 °C. A gradient elution system was used as follows: 40% B at 0 to 1 min, 90% B at 1 to 4 min, 90% B down to 40% B at 4 to 5 min, and 40% B at 5 to 7 min. The automatic sampler was maintained at 15 °C throughout the analysis. For the mass spectrometry analysis, positive ion scanning in selected reaction monitor mode was applied to monitor the transition of m/z 458.2 to 191.9 for the determination of WN2-R. Besides, other instrument parameters, including ion spray voltage, capillary temperature, sheath gas, auxiliary gas, and collision energy, were optimized to enhance the analysis of WN2-R.
# EXCEL and PRISM8.0 were used for data and chart preparation. The Winnolin professional software was employed for the pharmacokinetic parameter calculation. Bioavailability was calculated using the following formula: F (%) = (Di.v. × AUCp.o.)/(Dp.o. × AUCi.v.) × 100%.
# [2] = system: formalin-induced acute inflammatory pain model in mice; experiment: Formalin-induced inflammation pain model; type: in vivo, ICR mice; details: 30 min before formalin
# Description: The formalin-induced acute inflammatory pain model in mice, achieved through the plantar injection of formalin aqueous solution, is another widely used model for acute inflammatory pain. This model comprises 2 stages: an initial phase ([…]) where pain is triggered by formalin's direct stimulation of nociceptive receptors on sensory neurons, followed by a second phase (15 to 40 min) characterized by persistent inflammatory pain due to tissue damage. Similarly, both i.g. and i.m. methods were used to evaluate the effect of WN2-R in this model (n = 6) (Fig. 6B and I). […] These findings were consistent across repeated experiments.
# To induce the pain response, 20 μl of formalin (5%, w/v) was injected subcutaneously into the right hind paw of ICR mice (3 male and 3 female). Prior to the formalin injection, mice were preadministered with WN2-R (5 mg/kg i.g., 1 mg/kg i.m.), PF05089771 (5 mg/kg i.g., 1 mg/kg i.m.), or saline 30 min beforehand. The duration of licking/biting the injected paw was recorded every 5 min, commencing immediately after the formalin injection and continuing for 40 min. Phase I and II in this assay corresponded to the nociceptive response observed between 0 and 5 min and between 10 and 40 min, respectively.
# [3] = male, ICR, mouse, plasma, iv, i.v. (1 mg/kg)
# [4] = male, ICR, mouse, plasma, po, p.o. (10 mg/kg)
smiles,measurement,setting,value
Cc1ccc(Cn2cc([C@H](CC(=O)NCCN(C)C)c3ccc(F)cc3)c3ccccc32)cc1 [WN2-R],Time at which Cmax was detected,[1]; i.v. (1 mg/kg),2 min
same,V,[1]; i.v. (1 mg/kg),"23,580.98 ± 2,679.45 ml/kg"
same,Cmax,"[1]; male, ICR, mouse, iv, i.v. (1 mg/kg), plasma",269 ± 11.9 ng/mL
same,AUC(0-inf),[1]; [3],271 ± 30.8 ng·h/mL
same,AUC(0-t),[1]; [3],267 ± 29.7 ng·h/mL
same,Tmax,[1]; [3],0.033 h
same,clearance,[1]; [3],62 mL/min/kg
same,half-life,[1]; [3],4.47 ± 0.96 h
same,MRT last,[1]; [3],3.21 ± 0.28 h
same,MRT inf,[1]; [3],3.56 ± 0.44 h
same,bioavailability,"[1]; male, ICR, mouse, plasma, oral, p.o. 10 mg/kg vs i.v. 1 mg/kg, from AUC(0-t), read-out: F (bioavailability)",20.3%
same,AUC(0-inf),[1]; [4],546 ± 98.1 ng·h/mL
same,AUC(0-t),[1]; [4],542 ± 98.5 ng·h/mL
same,Tmax,[1]; [4],0.25 h
same,half-life,[1]; [4],3.46 ± 0.5 h
same,MRT last,[1]; [4],5.66 ± 0.33 h
same,MRT inf,[1]; [4],5.87 ± 0.4 h
same,Cmax,"[1]; male, ICR, mouse, po, p.o. (10 mg/kg), plasma",139 ± 25.4 ng/mL
same,Licking time in phase I vs saline,"[2]; i.g., 5 mg/kg",significantly reduced licking time
same,Licking time in phase II vs saline,"[2]; i.g., 5 mg/kg",failed to significantly reduce licking time
same,Licking time in phase I vs saline,"[2]; i.m., 1 mg/kg",significantly reduced licking time
same,Licking time in phase II vs saline,"[2]; i.m., 1 mg/kg",significantly reduced licking time
